Data: US11957759B1, “Rapidly accelerated fibrosarcoma (RAF) degrading compounds and associated methods of use” (Arvinas Operations, Inc., priority 2022, dated 2024)

Experiments:
B-RAF V600E = target: T1, B-RAF V600E (Homo sapiens, UniProt P15056, V600E); test: Target protein degradation, assay C: T-Rex 293 cells, HA-BRAF_V600E, 384 well format; format: cell-based; details: T-Rex 293 HA-BRAF_V600E cells, 24 hours, Examples 83-269; for DC50: Assay C; for Dmax: T-REx-293, Assay C
T1 construct: expressed in transfected cells; host or cells: T-Rex 293 cells (Invitrogen #R71007)
Summary of the method: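 After 24 h exposure to an 11-point 1:3 series (300 nM–5 pM, 0.5% DMSO), fixed T-Rex 293 cells carrying HA-BRAF V600E (induced with 1 ng/mL doxycycline) were stained anti-HA and imaged. DC50 and Dmax were derived from BRAF intensity relative to control, and cytotoxicity from nuclear counts.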

B-RAF G466V = target: T2, B-RAF G466V (Homo sapiens, UniProt P15056, G466V); test: Target protein degradation, assay D: T-Rex 293 cells, HA-BRAF_G466V, 384 well format; format: cell-based; details: T-Rex 293 HA-BRAF_G466V cells, 24 hours, Examples 83-269; for DC50: Assay D; for Dmax: T-REx-293, Assay D
T2 construct: expressed in transfected cells; host or cells: T-Rex 293 cells (Invitrogen #R71007)
Summary of the method: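 Degradation measured by high-content imaging of anti-HA immunofluorescence in fixed T-Rex 293 cells carrying inducible HA-BRAF G466V (1 ng/mL doxycycline), after 24 h PROTAC exposure at 37 °C over 300 nM–5 pM (1:3, 11 points, 0.5% DMSO). Outputs DC50 and Dmax as % of control; nuclei counts against DMSO wells gauge toxicity.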

T1 sequence (P15056 whole entry V600E): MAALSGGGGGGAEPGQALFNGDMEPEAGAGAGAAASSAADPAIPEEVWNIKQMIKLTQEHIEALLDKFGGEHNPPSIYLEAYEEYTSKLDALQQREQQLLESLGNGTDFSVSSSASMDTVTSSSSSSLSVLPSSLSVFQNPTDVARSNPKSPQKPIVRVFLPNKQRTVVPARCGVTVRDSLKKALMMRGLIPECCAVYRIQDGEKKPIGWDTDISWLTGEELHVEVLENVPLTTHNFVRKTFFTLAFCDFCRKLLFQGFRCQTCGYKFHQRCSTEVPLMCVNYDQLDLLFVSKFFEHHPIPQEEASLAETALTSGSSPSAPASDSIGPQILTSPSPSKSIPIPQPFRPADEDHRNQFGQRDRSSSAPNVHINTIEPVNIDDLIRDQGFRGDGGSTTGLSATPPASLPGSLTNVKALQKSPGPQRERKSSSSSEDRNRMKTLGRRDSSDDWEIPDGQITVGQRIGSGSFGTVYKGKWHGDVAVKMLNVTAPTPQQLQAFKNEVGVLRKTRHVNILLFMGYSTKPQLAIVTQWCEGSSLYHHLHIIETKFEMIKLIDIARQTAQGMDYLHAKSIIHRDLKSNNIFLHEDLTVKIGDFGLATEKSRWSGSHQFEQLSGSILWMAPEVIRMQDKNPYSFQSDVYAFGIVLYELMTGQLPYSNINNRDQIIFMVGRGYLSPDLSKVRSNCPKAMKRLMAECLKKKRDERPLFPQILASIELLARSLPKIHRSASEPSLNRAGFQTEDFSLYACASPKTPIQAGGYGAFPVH
T2 sequence (P15056 whole entry G466V): as the sequence (P15056 whole entry V600E) above, with G466V, E600V counted along it

SMILES | DC50 (B-RAF V600E) [nM] | Dmax (B-RAF V600E) [%] | DC50 (B-RAF G466V) [nM] | Dmax (B-RAF G466V) [%]
N#Cc1c(NS(=O)(=O)N2CC[C@@H](F)C2)ccc(F)c1Oc1ccc2ncn(-c3ccc(N4CCN(CCN5CCN(c6ccc(C7CCC(=O)NC7=O)cc6F)CC5)CC4)cc3)c(=O)c2c1 (stereo partly drawn) [Example 244, (3R)-N-{2-cyano-3-[(3-(4-[4-(2-{4-[4-(2,6-dioxopiperidin-3-yl)-2-fluorophenyl]piperazin-1-yl}ethyl)piperazin-1-yl]phenyl}-4-oxo-3,4-dihydroquinazolin-6-yl)oxy]-4-fluorophenyl}-3-fluoropyrrolidine-1-sulfonamide] | 50 to 500 | 35 to 70 | 1 to 10 | ≤ 35
Cn1c(=O)n(C2CCC(=O)NC2=O)c2cccc(N3CCN(CCN4CCN(c5ccc(-n6cnc7ccc(Oc8c(F)ccc(NS(=O)(=O)N9CC[C@@H](F)C9)c8C#N)cc7c6=O)cc5)CC4)CC3)c21 (stereo partly drawn) [Example 245, (3R)-N-{2-cyano-3-[(3-{4-[4-(2-{4-[1-(2,6-dioxopiperidin-3-yl)-3-methyl-2-oxo-2,3-dihydro-1H-1,3-benzodiazol-4-yl]piperazin-1-yl}ethyl)piperazin-1-yl]phenyl}-4-oxo-3,4-dihydroquinazolin-6-yl)oxy]-4-fluorophenyl}-3-fluoropyrrolidine-1-sulfonamide] | 50 to 500 | ≥ 70 | 1 to 10 | 35 to 70
Cn1c(=O)n(C2CCC(=O)NC2=O)c2cccc(N3CC4(CC(CN5CCN(c6ccc(-n7cnc8ccc(Oc9c(F)ccc(NS(=O)(=O)N%10CC[C@@H](F)C%10)c9C#N)cc8c7=O)cc6)CC5)C4)C3)c21 (stereo partly drawn) [Example 246, (3R)-N-{2-cyano-3-[(3-{4-[4-({2-[1-(2,6-dioxopiperidin-3-yl)-3-methyl-2-oxo-2,3-dihydro-1H-1,3-benzodiazol-4-yl]-2-azaspiro[3.3]heptan-6-yl}methyl)piperazin-1-yl]phenyl}-4-oxo-3,4-dihydroquinazolin-6-yl)oxy]-4-fluorophenyl}-3-fluoropyrrolidine-1-sulfonamide] | 50 to 500 | 35 to 70 | 1 to 10 | 35 to 70
N#Cc1c(NS(=O)(=O)N2CC[C@@H](F)C2)ccc(F)c1Oc1ccc2ncn(-c3ccc(N4CCN(CC5CN(c6cc(F)c7c(c6)CN(C6CCC(=O)NC6=O)C7=O)C5)CC4)cc3)c(=O)c2c1 (stereo partly drawn) [Example 247, (3R)—N-{2-cyano-3-[(3-{4-[4-({1-[2-(2,6-dioxopiperidin-3-yl)-7-fluoro-1-oxo-2,3-dihydro-1H-isoindol-5-yl]azetidin-3-yl}methyl)piperazin-1-yl]phenyl}-4-oxo-3,4-dihydroquinazolin-6-yl)oxy]-4-fluorophenyl}-3-fluoropyrrolidine-1-sulfonamide] | 50 to 500 | ≥ 70 | 1 to 10 | 35 to 70
N#Cc1c(NS(=O)(=O)N2CC[C@@H](F)C2)ccc(F)c1Oc1ccc2ncn(-c3ccn(C4CCN(CC5CCN(c6ccc7c(c6)CN([C@H]6CCC(=O)NC6=O)C7=O)CC5)CC4)n3)c(=O)c2c1 [Example 248, (3R)—N-(2-cyano-3-{[3-(1-{1-[(1-{2-[(3S)-2,6-dioxopiperidin-3-yl]-1-oxo-2,3-dihydro-1H-isoindol-5-yl}piperidin-4-yl)methyl]piperidin-4-yl}-1H-pyrazol-3-yl)-4-oxo-3,4-dihydroquinazolin-6-yl]oxy}-4-fluorophenyl)-3-fluoropyrrolidine-1-sulfonamide] | 50 to 500 | ≥ 70 | 1 to 10 | ≥ 70
N#Cc1c(NS(=O)(=O)N2CC[C@@H](F)C2)ccc(F)c1Oc1ccc2ncn(-c3ccc(C4CCN([C@H]5C[C@H](OC6CCN(c7ccc8c(c7)CN(C7CCC(=O)NC7=O)C8=O)CC6)C5)CC4)cc3)c(=O)c2c1 (stereo partly drawn) [Example 249, (3R)—N-(2-cyano-4-fluoro-3-{[4-oxo-3-(4-{1-[(1r,3r)-3-({1-[2-(2,6-dioxopiperidin-3-yl)-1-oxo-2,3-dihydro-1H-isoindol-5-yl]piperidin-4-yl}oxy)cyclobutyl]piperidin-4-yl}phenyl)-3,4-dihydroquinazolin-6-yl]oxy}phenyl)-3-fluoropyrrolidine-1-sulfonamide] | > 500 | – | 1 to 10 | 35 to 70
N#Cc1c(NS(=O)(=O)N2CC[C@@H](F)C2)ccc(F)c1Oc1ccc2ncn(-c3ccc(N4CCC5(CC4)CC(OC4CCN(c6ccc7c(c6)CN([C@H]6CCC(=O)NC6=O)C7=O)CC4)C5)cc3)c(=O)c2c1 [Example 250, (3R)—N-(2-cyano-3-{[3-(4-{2-[(1-{2-[(3S)-2,6-dioxopiperidin-3-yl]-1-oxo-2,3-dihydro-1H-isoindol-5-yl}piperidin-4-yl)oxy]-7-azaspiro[3.5]nonan-7-yl}phenyl)-4-oxo-3,4-dihydroquinazolin-6-yl]oxy}-4-fluorophenyl)-3-fluoropyrrolidine-1-sulfonamide] | 50 to 500 | 35 to 70 | 1 to 10 | 35 to 70
N#Cc1c(NS(=O)(=O)N2CC[C@@H](F)C2)ccc(F)c1Oc1ccc2ncn(-c3ccc(N4CCN([C@H]5C[C@H](OC6CCN(c7ccc8c(c7)CN(C7CCC(=O)NC7=O)C8=O)CC6)C5)CC4)cc3)c(=O)c2c1 (stereo partly drawn) [Example 251, (3R)-N-(2-cyano-4-fluoro-3-{[4-oxo-3-(4-(4-[(1r,3r)-3-({1-[2-(2,6-dioxopiperidin-3-yl)-1-oxo-2,3-dihydro-1H-isoindol-5-yl]piperidin-4-yl}oxy)cyclobutyl]piperazin-1-yl}phenyl)-3,4-dihydroquinazolin-6-yl]oxy}phenyl)-3-fluoropyrrolidine-1-sulfonamide] | 50 to 500 | 35 to 70 | 1 to 10 | 35 to 70
N#Cc1c(NS(=O)(=O)N2CC[C@@H](F)C2)ccc(F)c1Oc1ccc2ncn(-c3ccc(N4CCC5(CC4)CC(OC4CCN(c6ccc7c(c6)CN([C@@H]6CCC(=O)NC6=O)C7=O)CC4)C5)cc3)c(=O)c2c1 [Example 252, (3R)-N-(2-cyano-3-{[3-(4-{2-[(1-{2-[(3R)-2,6-dioxopiperidin-3-yl]-1-oxo-2,3-dihydro-1H-isoindol-5-yl}piperidin-4-yl)oxy]-7-azaspiro[3.5]nonan-7-yl}phenyl)-4-oxo-3,4-dihydroquinazolin-6-yl]oxy}-4-fluorophenyl)-3-fluoropyrrolidine-1-sulfonamide] | 5 to 50 | ≤ 35 | 1 to 10 | 35 to 70
N#Cc1c(NS(=O)(=O)N2CC[C@@H](F)C2)ccc(F)c1Oc1ccc2ncn(-c3ccc(N4CCC(O[C@H]5C[C@H](N6CCC(c7ccc8c(c7)CN(C7CCC(=O)NC7=O)C8=O)CC6)C5)CC4)cc3)c(=O)c2c1 (stereo partly drawn) [Example 253, (3R)-N-(2-cyano-4-fluoro-3-{[4-oxo-3-(4-{4-[(1r,3r)-3-{4-[2-(2,6-dioxopiperidin-3-yl)-1-oxo-2,3-dihydro-1H-isoindol-5-yl]piperidin-1-yl}cyclobutoxy]piperidin-1-yl}phenyl)-3,4-dihydroquinazolin-6-yl]oxy}phenyl)-3-fluoropyrrolidine-1-sulfonamide] | 50 to 500 | 35 to 70 | 1 to 10 | 35 to 70
